Several values for one entry are separate records, joined by “and”; a condition that tells them apart may be missing. Equal entries are not always repeated. Entries after “also recorded” stand apart in the source; their conditions may differ.
What was measured:
[1] = tested on: intraocular pressure (IOP) of adult white rabbits; assay: Salted Rabbit Test: IOP after topical 1% w/v suspension; type: in vivo; conditions: for IOP change, individual rabbit (Rabbit No. 1-6): 1% w/v suspension, 3 drops
Experimental: In particular, an initial drop from the test formulation followed by two drops at one minute intervals are applied to one eye of each of six adult white rabbits that had been maintained ona diet containing 0.5% sodium. The treated eye was selected randomly, whereas, the fellow eye received placebo; the observer was masked. Results identified a small but significant reduction of intraocular pressure in the treated eye at 30, 60 and 120 minutes.
One drop, followed by two drops each at one minute intervals, was applied to one eye of normal adult white rabbits. Six rabbits were used in the experiment. The treated eye was selected randomly, whereas, the fellow eye received placebo. The observer was masked. The intraocular pressure (IOP) was measured with a Digilab Pneumotonometer, initially and every ten minutes for 120 minutes following instillation of the anti-glaucoma agent. A drop of local anesthetic was applied just prior to making the measurement.

[2] = tested on: carbonic anhydrase; assay: in vitro carbonic anhydrase activity, simplified method of Maren; type: biochemical; design: averaged I50 (concentration of drug causing 50% inhibition of enzyme): unit not given here
Experimental: Water was added to the reaction vessel which was kept in a water bath at 0±0.25° C. The reaction cell was constantly purged with CO2 at a rate of 200 to 250 ml/min. Each reagent was added at a specified time and in a specified order. […] The time required for the reaction begins with the addition of carbonate buffer and was completed with the indicator changed from red to yellow. […] Reaction time was the time for the uncatalyzed reaction time. […] By varying the time before adding the carbonate buffer and then determining the reaction time, the equilibration time can be accurately determined. The reaction time was averaged over three determinations. […] (If two enzyme units are added, then the concentration of drug yielding a reaction time corresponding to the activity of one unit is taken as the I50). An enzyme unit (e.u.) was calculated from: [formula]

With `CNS(=O)(=O)c1nnc(NC(C)=O)s1` [methyl acetazolamide, N-methyl-2-acetylamino-1,3,4-thiadiazole-5-sulfonamide] the “IOP change, individual rabbit (Rabbit No. 1-6)” value (from here on “IOP change … (Rabbit No. 1-6)”) ([1]; 10 min) was -4 mm Hg and -2 mm Hg and 0 mm Hg, the “IOP change … (Rabbit No. 1-6)” value ([1]; 20 min) was -2 mm Hg and 0 mm Hg and -4 mm Hg and -3 mm Hg and 1 mm Hg and the “IOP change … (Rabbit No. 1-6)” value ([1]; 30 min) was -3 mm Hg and -2 mm Hg and -1 mm Hg. The “IOP change … (Rabbit No. 1-6)” value ([1]; 40 min) was 0 mm Hg and -1 mm Hg, the “IOP change … (Rabbit No. 1-6)” value ([1]; 50 min) was -5 mm Hg and -2 mm Hg and -1 mm Hg and 0 mm Hg and the “IOP change … (Rabbit No. 1-6)” value ([1]; 60 min) was -3 mm Hg and 1 mm Hg and -2 mm Hg and -1 mm Hg. The “IOP change … (Rabbit No. 1-6)” value ([1]; 70 min) was -4 mm Hg and -2 mm Hg and 0 mm Hg and 2 mm Hg, the “IOP change … (Rabbit No. 1-6)” value ([1]; 80 min) was -3 mm Hg and -4 mm Hg and 1 mm Hg and 0 mm Hg and the “IOP change … (Rabbit No. 1-6)” value ([1]; 90 min) was -2 mm Hg and 1 mm Hg and -1 mm Hg and -4 mm Hg and 0 mm Hg and 3 mm Hg. The “IOP change … (Rabbit No. 1-6)” value ([1]; 100 min) was -4 mm Hg and 0 mm Hg and -3 mm Hg and -2 mm Hg, the “IOP change … (Rabbit No. 1-6)” value ([1]; 110 min) was -2 mm Hg and 0 mm Hg and 1 mm Hg and the “IOP change … (Rabbit No. 1-6)” value ([1]; 120 min) was -3 mm Hg and 0 mm Hg and -1 mm Hg. The “reduction of intraocular pressure after topical administration, in words” value ([1]; rabbit, eye drops) was “lowering of IOP was statistically significant at all time intervals; also recorded: able to reduce intraocular pressure”, the “in vitro carbonic anhydrase inhibition, in words” value [2] was “inactive in vitro” and the “activity relative to acetazolamide (ratio of I50)” value ([2]; 0.52/0.00914) was 1/60. For the same compound, the “averaged I50 (concentration of drug causing 50% inhibition of enzyme)” value ([2]; heparinized blood, 2 enzyme units, 0 C) was 0.520.

— patent US4629738A, “Non-classical topical treatment for glaucoma” (University of Iowa Research Foundation, priority 1984, dated 1986)
